# Test results as given in patent US12318452B2, “Degraders of WEE1 kinase” (DANA-FARBER CANCER INSTITUTE, INC., priority 2018, dated 2025).
# Legend:
# PLK1 = PLK1 (Homo sapiens, UniProt P53350); assay: PLK1 level by immunoblot in MOLT4 cells; type: cell-based
# Method: MOLT4 cells were plated at 1.5 million cells per well in a 6-well plate, with 3 mL of media per well. Cells were then immediately treated with the indicated concentration of the indicated compound and incubated for the indicated amount of time. Cells were collected by transferring each well to a 15 mL conical, centrifuging (1000 rpm for 3 min), then washing the cell pellet 2× with cold PBS. Each cell pellet was then lysed in 100 μL of RIPA lysis buffer (+protease/phosphatase inhibitors). Samples were normalized and prepped in 4×LDS+10% β-mercaptoethanol and boiled for 5 min at 95° C. Lysates were probed for specified proteins by western blotting using the Bolt® system (Life Technologies™)
# Immunoblotting: Cells were washed with phosphate-buffered saline (PBS) and then lysed using radioimmunoprecipitation assay (RIPA) buffer supplemented with protease and phosphatase inhibitor cocktail (Roche) on ice for 15 minutes. The lysates were centrifuged at 14,000 rpm for 15 minutes at 4° C. and protein was quantified by bicinchoninic acid (BCA) assay (Pierce™). […]
# FIG. 2A is an immunoblot showing that compound 13 degraded Wee1 after a 6-hour treatment in MOLT4 cells, and induced the downstream changes expected from Wee1 loss—including a decrease in phosphorylated cyclin-dependent kinase 1 (pCDK1) (Y15) and an increase in pH 3. […] Proteins of interest were then assessed by western blotting.
# MOLT4 proteome = assay: Multiplexed quantitative mass spectrometry-based proteomics in MOLT4 cells; type: cell-based, human; details: 100 nM
# Method: MOLT4 cells were treated with DMSO or 100 nM of compound 13 for 2 or 4 hours in biological triplicates and lenalidomide in biological duplicates for 4 hours and cells were harvested by centrifugation. Lysis buffer (8 M Urea, 50 mM NaCl, 50 mM 4-(2hydroxyethyl)-1-piperazineethanesulfonic acid (EPPS) pH 8.5, Protease and Phosphatase inhibitors from Roche) was added to the cell pellets and homogenized by 20 passes through a 21 gauge (1.25 in. long) needle to achieve a cell lysate with a protein concentration between 1-4 mg mL^−1. A micro-BCA assay (Pierce™) was used to determine the final protein concentration of protein in the cell lysate. 200 μg of protein for each sample were reduced and alkylated as previously described in Donovan et al., Elife 7:e38430 (2018).
# Proteins were precipitated using methanol/chloroform. In brief, four volumes of methanol were added to the cell lysate, followed by one volume of chloroform, and finally three volumes of water. The mixture was vortexed and centrifuged to separate the chloroform phase from the aqueous phase. The precipitated protein was washed with three volumes of methanol, centrifuged and the resulting washed precipitated protein was allowed to air dry. Precipitated protein was resuspended in 4 M Urea, 50 mM HEPES pH 7.4, followed by dilution to 1 M urea with the addition of 200 mM EPPS, pH 8. Proteins were first digested with LysC (1:50; enzyme: protein) for 12 hours at room temperature. The LysC digestion was diluted down to 0.5 M Urea with 200 mM EPPS pH 8 and then digested with trypsin (1:50; enzyme:protein) for 6 hours at 37° C. Tandem mass tag (TMT) reagents (Thermo Fisher Scientific) were dissolved in anhydrous acetonitrile (ACN) according to manufacturer instructions. […] The sample channels were combined at a 1:1:1:1:1:1:1:1:1:1:1 ratio, desalted using C18 solid phase extraction cartridges (Waters®) and analyzed by LC-MS for channel ratio comparison. Samples were then combined using the adjusted volumes determined in the channel ratio analysis and dried down in a speed vacuum. […]
# PLK1, sequence (P53350 whole entry): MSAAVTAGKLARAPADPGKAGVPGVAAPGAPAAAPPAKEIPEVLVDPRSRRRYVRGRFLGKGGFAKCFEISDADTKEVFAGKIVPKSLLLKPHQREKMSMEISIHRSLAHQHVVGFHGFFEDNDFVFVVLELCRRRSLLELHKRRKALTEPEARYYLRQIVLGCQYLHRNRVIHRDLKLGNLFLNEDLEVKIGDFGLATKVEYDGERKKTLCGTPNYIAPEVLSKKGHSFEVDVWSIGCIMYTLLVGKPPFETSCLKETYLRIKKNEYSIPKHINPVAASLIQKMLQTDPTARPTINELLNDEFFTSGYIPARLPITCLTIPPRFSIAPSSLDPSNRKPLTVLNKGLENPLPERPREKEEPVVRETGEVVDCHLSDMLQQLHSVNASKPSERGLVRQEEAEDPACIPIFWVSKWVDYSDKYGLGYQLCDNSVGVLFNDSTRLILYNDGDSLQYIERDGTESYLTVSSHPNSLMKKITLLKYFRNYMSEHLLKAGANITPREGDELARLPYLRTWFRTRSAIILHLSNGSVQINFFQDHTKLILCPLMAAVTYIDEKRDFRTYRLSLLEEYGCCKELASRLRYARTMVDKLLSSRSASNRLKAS
smiles,measurement,setting,value
"C=CCn1c(=O)c2cnc(Nc3ccc(N4CCN(CCCNc5cccc6c5C(=O)N(C5CCC(=O)NC5=O)C6=O)CC4)cc3)nc2n1-c1cccc(C(C)(C)O)n1 (centres unmarked) [Compound 13, 4-((3-(4-(4-((2-allyl-1-(6-(2-hydroxypropan-2-yl)pyridin-2-yl)-3-oxo-2,3-dihydro-1H-pyrazolo[3,4-d]pyrimidin-6-yl)amino)phenyl)piperazin-1-yl)propyl)amino)-2-(2,6-dioxopiperidin-3-yl)isoindoline-1,3-dione]",PLK1 degradation,PLK1; 6-hour treatment,not degraded
same,PLK1 levels,PLK1; treated for up to 48 hrs,not reduced
same,ZFP91 degradation by proteomics,MOLT4 proteome,low levels of ZFP91 degradation
same,PLK1 downregulation by proteomics,MOLT4 proteome; 2 hours,No downregulation of PLK1
same,Wee1 abundance Log2FC,MOLT4 proteome; 2 hours,−1.97
